ChEMBL document CHEMBL3885881, “DrugMatrix”

Species: Rattus norvegicus
Assay: DrugMatrix - Regimen: Daily Repeat
Assay type: toxicity, organism-based, Sprague-Dawley
Set-up: regimen Daily Repeat, gender Male, age 6-8 weeks
Settings: in vivo, po, route oral GAVAGE, vehicle 100 % WATER; for ABSOLUTE BASOPHIL / ABSOLUTE EOSINOPHIL / ABSOLUTE LYMPHOCYTE / ABSOLUTE MONOCYTE / ABSOLUTE SEGMENTED NEUTROPHIL / BASOPHIL / EOSINOPHIL / ERYTHROCYTE COUNT / HEMATOCRIT / HEMOGLOBIN / LEUKOCYTE COUNT / LYMPHOCYTE / MEAN CORPUSCULAR HEMOGLOBIN / MEAN CORPUSCULAR HEMOGLOBIN CONCENTRATION / MEAN CORPUSCULAR VOLUME / MONOCYTE / NEUTROPHIL / NUCLEATED RED BLOOD CELLS / PLATELET COUNT: tissue Blood; for ALANINE AMINOTRANSFERASE / ALBUMIN / ALKALINE PHOSPHATASE / ASPARTATE AMINOTRANSFERASE / BLOOD UREA NITROGEN / CARBON DIOXIDE / CHLORIDE / CHOLESTEROL / CREATINE PHOSPHOKINASE / CREATININE / GLUCOSE / LACTATE DEHYDROGENASE / LIPASE / PHOSPHORUS / POTASSIUM / SODIUM / TOTAL BILIRUBIN / TOTAL PROTEIN / URIC ACID: tissue Plasma
[1] = 39 mg/kg, 120 h, dose level Low, time 5 day
[2] = 150 mg/kg, 72 h, dose level High, time 3 day
[3] = 150 mg/kg, 120 h, dose level High, time 5 day

## C[C@]12Cc3c[nH]nc3C[C@@H]1CC[C@@H]1[C@@H]2CC[C@@]2(C)[C@H]1CC[C@]2(C)O [STANOZOLOL]
[1]
  ABSOLUTE BASOPHIL: 0 CELLS/uL
  ABSOLUTE EOSINOPHIL: 55.33 CELLS/uL
  ABSOLUTE LYMPHOCYTE: 11411 CELLS/uL
  ABSOLUTE MONOCYTE: 142 CELLS/uL
  ABSOLUTE SEGMENTED NEUTROPHIL: 1025 CELLS/uL
  BASOPHIL: 0%
  EOSINOPHIL: 0.33%
  ERYTHROCYTE COUNT: 5.64 x10E6/uL
  HEMATOCRIT: 35.63%
  HEMOGLOBIN: 13.63 G/DL
  LEUKOCYTE COUNT: 12.63 x10E3/uL
  LYMPHOCYTE: 90.33%
  MEAN CORPUSCULAR HEMOGLOBIN: 24.33 pg
  MEAN CORPUSCULAR HEMOGLOBIN CONCENTRATION: 38.33 G/DL
  MEAN CORPUSCULAR VOLUME: 63.43 fL
  MONOCYTE: 1.33%
  NEUTROPHIL: 8%
  NUCLEATED RED BLOOD CELLS: 0.67 /100WBC
  PLATELET COUNT: 1199.33 x10E3/uL
  ALANINE AMINOTRANSFERASE: 55.67 u/L
  ALBUMIN: 3.87 G/DL
  ALKALINE PHOSPHATASE: 492.33 u/L
  ASPARTATE AMINOTRANSFERASE: 81.67 u/L
  BLOOD UREA NITROGEN: 13.33 mg/dL
  CARBON DIOXIDE: 32.67 mmol/L
  CHLORIDE: 98.67 MEQ/L
  CHOLESTEROL: 35 mg/dL
  CREATINE PHOSPHOKINASE: 259.67 u/L
  CREATININE: 0.16 mg/dL
  GLUCOSE: 144 mg/dL
  LACTATE DEHYDROGENASE: 113 u/L
  LIPASE: 8 u/L
  PHOSPHORUS: 10.33 mg/dL
  POTASSIUM: 5.69 MEQ/L
  SODIUM: 144.47 MEQ/L
  TOTAL BILIRUBIN: 0.2 mg/dL
  TOTAL PROTEIN: 6.07 G/DL
  URIC ACID: 0.33 mg/dL
[2]
  ABSOLUTE BASOPHIL: 0 CELLS/uL
  ABSOLUTE EOSINOPHIL: 39.67 CELLS/uL
  ABSOLUTE LYMPHOCYTE: 9030.67 CELLS/uL
  ABSOLUTE MONOCYTE: 107.33 CELLS/uL
  ABSOLUTE SEGMENTED NEUTROPHIL: 755.67 CELLS/uL
  BASOPHIL: 0%
  EOSINOPHIL: 0.33%
  ERYTHROCYTE COUNT: 6.43 x10E6/uL
  HEMATOCRIT: 39.27%
  HEMOGLOBIN: 14.53 G/DL
  LEUKOCYTE COUNT: 9.93 x10E3/uL
  LYMPHOCYTE: 91%
  MEAN CORPUSCULAR HEMOGLOBIN: 22.63 pg
  MEAN CORPUSCULAR HEMOGLOBIN CONCENTRATION: 37.07 G/DL
  MEAN CORPUSCULAR VOLUME: 61.07 fL
  MONOCYTE: 1%
  NEUTROPHIL: 7.67%
  NUCLEATED RED BLOOD CELLS: 0.33 /100WBC
  PLATELET COUNT: 951 x10E3/uL
  ALANINE AMINOTRANSFERASE: 74 u/L
  ALBUMIN: 4.1 G/DL
  ALKALINE PHOSPHATASE: 493.67 u/L
  ASPARTATE AMINOTRANSFERASE: 138.33 u/L
  BLOOD UREA NITROGEN: 12.67 mg/dL
  CARBON DIOXIDE: 34.33 mmol/L
  CHLORIDE: 96.5 MEQ/L
  CHOLESTEROL: 46.67 mg/dL
  CREATINE PHOSPHOKINASE: 1177 u/L
  CREATININE: 0.14 mg/dL
  GLUCOSE: 134.33 mg/dL
  LACTATE DEHYDROGENASE: 200 u/L
  LIPASE: 11 u/L
  PHOSPHORUS: 11.53 mg/dL
  POTASSIUM: 6.12 MEQ/L
  SODIUM: 142.35 MEQ/L
  TOTAL BILIRUBIN: 0.33 mg/dL
  TOTAL PROTEIN: 6.33 G/DL
  URIC ACID: 0.5 mg/dL
[3]
  ABSOLUTE BASOPHIL: 0 CELLS/uL
  ABSOLUTE EOSINOPHIL: 31.33 CELLS/uL
  ABSOLUTE LYMPHOCYTE: 9499.67 CELLS/uL
  ABSOLUTE MONOCYTE: 0 CELLS/uL
  ABSOLUTE SEGMENTED NEUTROPHIL: 1135.67 CELLS/uL
  BASOPHIL: 0%
  EOSINOPHIL: 0.33%
  ERYTHROCYTE COUNT: 6.28 x10E6/uL
  HEMATOCRIT: 37.87%
  HEMOGLOBIN: 14.4 G/DL
  LEUKOCYTE COUNT: 10.67 x10E3/uL
  LYMPHOCYTE: 88.67%
  MEAN CORPUSCULAR HEMOGLOBIN: 22.93 pg
  MEAN CORPUSCULAR HEMOGLOBIN CONCENTRATION: 38.03 G/DL
  MEAN CORPUSCULAR VOLUME: 60.33 fL
  MONOCYTE: 0%
  NEUTROPHIL: 11%
  NUCLEATED RED BLOOD CELLS: 0 /100WBC
  PLATELET COUNT: 1393.33 x10E3/uL
  ALANINE AMINOTRANSFERASE: 46 u/L
  ALBUMIN: 3.87 G/DL
  ALKALINE PHOSPHATASE: 445.33 u/L
  ASPARTATE AMINOTRANSFERASE: 64.67 u/L
  BLOOD UREA NITROGEN: 16 mg/dL
  CARBON DIOXIDE: 32.33 mmol/L
  CHLORIDE: 99 MEQ/L
  CHOLESTEROL: 12.33 mg/dL
  CREATINE PHOSPHOKINASE: 238.67 u/L
  CREATININE: 0.14 mg/dL
  GLUCOSE: 131.33 mg/dL
  LACTATE DEHYDROGENASE: 117.33 u/L
  LIPASE: 7.67 u/L
  PHOSPHORUS: 11.13 mg/dL
  POTASSIUM: 5.01 MEQ/L
  SODIUM: 144.1 MEQ/L
  TOTAL BILIRUBIN: 0.1 mg/dL
  TOTAL PROTEIN: 5.8 G/DL
  URIC ACID: 0.3 mg/dL
